Test results reported in publication PMC4454739 (Clinical cancer research : an official journal of the …, 2014).
Like-named read-outs stand apart in the source and are kept apart here. Each block holds one compound with its values, some of them ahead of it.

Key:
[1] = assay type: in vivo, human; conditions: for change of exposure (AUC) with dose: temsirolimus 8, 10 and 15 mg/m^2; for AUC(0-inf) / AUC(0-t) / Cmax / Tmax / Vd / half-life / clearance: human, intravenous; for AUC(0-inf) / AUC(0-t) / Cmax / Tmax / Vd / half-life: plasma; for clearance: whole blood
[2] = cited from earlier work
[3] = Phase I toxicity, DLT and MTD determination; assay type: in vivo, human; conditions: for recommended pediatric phase II dose: IV once every 7 days
[4] = adults, metastatic prostate cancer; with cixutumumab 6 mg/kg IV; cited from earlier work
[5] = in vivo; cited from earlier work
[6] = in vivo, 6 mg/kg; cited from earlier work
Cixutumumab = conditions: for AUC0–7d / CL / CL (weight-adjusted) / Cmax / Vdss / Vdss (weight-adjusted): median
[7] = all patients, combination with temsirolimus
[8] = cycle 1, IMC-A12 6 mg/kg + temsirolimus 8 mg/m^2 (n=8)
[9] = cycle 1, IMC-A12 6 mg/kg + temsirolimus 10 mg/m^2 (n = 3)
[10] = cycle 1, IMC-A12 6 mg/kg + temsirolimus 15 mg/m^2 (n = 4)

change of exposure (AUC) with dose [1]: did not appreciably increase with dose | change of exposure (AUC) with dose ([1]; listed as sirolimus): did not increase significantly with dose
Compound: CO[C@H]1C[C@@H]2CC[C@@H](C)[C@@](O)(O2)C(=O)C(=O)N2CCCC[C@H]2C(=O)O[C@H]([C@H](C)C[C@@H]2CC[C@@H](O)[C@H](OC)C2)CC(=O)[C@H](C)/C=C(\C)[C@@H](O)[C@@H](OC)C(=O)[C@H](C)C[C@H](C)/C=C/C=C/C=C/1C [Sirolimus]

Compound: CO[C@H]1C[C@@H]2CC[C@@H](C)[C@@](O)(O2)C(=O)C(=O)N2CCCC[C@H]2C(=O)O[C@H]([C@H](C)C[C@@H]2CC[C@@H](OC(=O)C(C)(CO)CO)[C@H](OC)C2)CC(=O)[C@H](C)/C=C(\C)[C@@H](O)[C@@H](OC)C(=O)[C@H](C)C[C@H](C)/C=C/C=C/C=C/1C [Temsirolimus]
clearance from whole blood, mean ([2]; after a 25-mg dose): 20 L/h | steady-state volume of distribution (Vss) ([2]; after a 25-mg dose): 230 L | clearance from whole blood, mean ([2]; after a 250-mg dose): 100 L/h | steady-state volume of distribution (Vss) ([2]; after a 250-mg dose): 900 L | MTD ([3]; temsirolimus combined with cixutumumab 6 mg/kg, children): 8 mg/m^2 | recommended pediatric phase II dose ([3]; temsirolimus in combination with cixutumumab): 8 mg/m^2 | MTD of temsirolimus in the combination, flat dose [4]: 20 mg | MTD of temsirolimus in the combination, per body surface [4]: 11 mg/m^2 | AUC(0-inf) ([1]; 8 mg/m2): 2950 ng·h/mL | AUC(0-t) ([1]; 8 mg/m2): 2020 ng·h/mL | Cmax ([1]; 8 mg/m2): 509 ng/mL | Tmax ([1]; 8 mg/m2): 0.8 h | Vd ([1]; 8 mg/m2): 46.3 L | half-life ([1]; 8 mg/m2): 10.3 h | AUC(0-inf) ([1]; 10 mg/m2): 3650 ng·h/mL | AUC(0-t) ([1]; 10 mg/m2): 2650 ng·h/mL | Cmax ([1]; 10 mg/m2): 606 ng/mL | Tmax ([1]; 10 mg/m2): 0.7 h | Vd ([1]; 10 mg/m2): 50.4 L | half-life ([1]; 10 mg/m2): 10.5 h | AUC(0-inf) ([1]; 15 mg/m2): 3270 ng·h/mL | AUC(0-t) ([1]; 15 mg/m2): 2780 ng·h/mL | Cmax ([1]; 15 mg/m2): 660 ng/mL | Tmax ([1]; 15 mg/m2): 0.6 h | Vd ([1]; 15 mg/m2): 74.9 L | half-life ([1]; 15 mg/m2): 10.3 h | clearance ([1]; 8 mg/m2): 38.3 mL/min | clearance ([1]; 10 mg/m2): 91.7 mL/min | clearance ([1]; 15 mg/m2): 112 mL/min | change of exposure (AUC) with dose [1]: did not increase significantly with dose

Compound: Cixutumumab: fully recombinant IgG1 monoclonal antibody that specifically targets the human IGF-IR1
recommended phase II dose, single agent [5]: 9 mg/kg | half-life [6]: 209 h | steady-state trough concentration [6]: 145 mg/mL | recommended pediatric phase II dose ([3]; cixutumumab in combination with temsirolimus): 6 mg/kg | median half-life (Cixutumumab; [7]): 122 h | median weight-adjusted clearance (Cixutumumab; [7]): 4.08 mL/day/kg | half-life (Cixutumumab; at 6 mg/kg, children): 122 h | steady-state trough concentration (Cixutumumab; at 6 mg/kg, children): 197 mg/mL | median serum trough concentration (Ctrough) (Cixutumumab; day 28 following a 6 mg/kg dose): approximately 200 μg/ml | AUC0–7d (Cixutumumab; [8]): 20.6 ng·h/mL | CL (Cixutumumab; [8]): 8.3 mL/h | CL (weight-adjusted) (Cixutumumab; [8]): 4.56 mL/day/kg | Cmax (Cixutumumab; [8]): 281000 ng/mL | Vdss (Cixutumumab; [8]): 1050 mL | Vdss (weight-adjusted) (Cixutumumab; [8]): 0.0258 L/kg | AUC0–7d (Cixutumumab; [9]): 25.6 ng·h/mL | CL (Cixutumumab; [9]): 9.9 mL/h | CL (weight-adjusted) (Cixutumumab; [9]): 4.08 mL/day/kg | Cmax (Cixutumumab; [9]): 277000 ng/mL | Vdss (Cixutumumab; [9]): 1750 mL | Vdss (weight-adjusted) (Cixutumumab; [9]): 0.0227 L/kg | AUC0–7d (Cixutumumab; [10]): 26.4 ng·h/mL | CL (Cixutumumab; [10]): 7.0 mL/h | CL (weight-adjusted) (Cixutumumab; [10]): 3.12 mL/day/kg | Cmax (Cixutumumab; [10]): 230000 ng/mL | Vdss (Cixutumumab; [10]): 1860 mL | Vdss (weight-adjusted) (Cixutumumab; [10]): 0.0311 L/kg | change in cixutumumab clearance as the temsirolimus dose was increased (Cixutumumab; temsirolimus 8 to 15 mg/m^2): no changes
